Test results from patent US5736558A, “4-(6-fluoro-1,2-benzisoxazolyl)-1 piperidinyl-propoxy-chromen-4-one-one-derivatives, their preparation and their use in the treatment of psychosis, schizophrenia and anxiety” (Ferrer Internacional, S.A., priority 1995, dated 1998).
Like-named read-outs stand apart in the source and are kept apart here.

Columns and labels:
[1] = test system: apomorphine-induced climbing behaviour; assay: Inhibition test of apomorphine-induced climbing behaviour; type: in vivo, male Swiss mice; settings: Mus musculus, 1 h, read-out: ID50 Climbing
Description: The compounds were compared in Animal Pharmacology by the inhibition test of apomorphine-induced climbing behaviour
For the practical performance of this experiment, male Swiss mice weighing 22-24 g were used. One week prior to experiment, animals were kept in our facilities at a temperature of 20°-22° C. and 12/12 h light-dark cycle, and had free access to food and water. Two hours prior to experiment, the animals were placed in individual cages without access to food.
Animals were administered orally with test drug or 0.25% agar at time 0. After 60 minutes, apomorphine was subcutaneously injected at a dose of 1 mg/kg, and after further 70 minutes the animal's behaviour was assessed. Two additional assessments were performed at 10-min intervals.
For assessment, each animal was placed on the bottom of a small upright box (11×7.5×4.5 cm). The walls of the box were made of translucent methacrylate except one of the lateral surfaces (7.5 cm wide) which was a 3-mm wire mesh. The position of the animal was scored for 2 minutes according to the following criteria: 0=four paws on the floor; 1=three paws on the floor; 2=two paws on the floor; 3=one paw on the floor; and 4=four paws holding the wire mesh. If an animal keeps several positions within the 2-min observation, the seconds elapsed in each position will be recorded. Finally, mean scoring was calculated.

5HT2 receptors = target: T1, 5HT2 receptors (Rattus norvegicus, UniProt P14842); assay: Specific binding to 5HT2 receptors ([3H]ketanserin, rat cortex membrane); settings: 0.5 nM [3H]ketanserin, 30 min, 35° C., pH 7.4
T1 construct: membrane corresponding to 1 mg of rat cortex; from tissue; host or cells: rat cortex membrane
Description: (§1) Specific binding to D2, 5HT2 and, 5HT1a receptors was tested as follows:
The amount of receptor-bound radioactivity was retained on the membrane and determined by liquid scintillation counting.
(§2) The biochemical results expressed as IC50 in molar concentrations are presented in Table 1 comparatively to the compound of Patent ES 9400581. A higher affinity of the present compounds to the three receptors is observed.

5HT1a receptors = target: T2, 5HT1a receptors (Rattus norvegicus, UniProt P19327); assay: Specific binding to 5HT1a receptors ([3H]5-OH-DPAT, rat cortex membrane)
T2 construct: membrane corresponding to 1 mg of rat cortex; from tissue; host or cells: rat cortex membrane
T2 sequence (P19327 1-422): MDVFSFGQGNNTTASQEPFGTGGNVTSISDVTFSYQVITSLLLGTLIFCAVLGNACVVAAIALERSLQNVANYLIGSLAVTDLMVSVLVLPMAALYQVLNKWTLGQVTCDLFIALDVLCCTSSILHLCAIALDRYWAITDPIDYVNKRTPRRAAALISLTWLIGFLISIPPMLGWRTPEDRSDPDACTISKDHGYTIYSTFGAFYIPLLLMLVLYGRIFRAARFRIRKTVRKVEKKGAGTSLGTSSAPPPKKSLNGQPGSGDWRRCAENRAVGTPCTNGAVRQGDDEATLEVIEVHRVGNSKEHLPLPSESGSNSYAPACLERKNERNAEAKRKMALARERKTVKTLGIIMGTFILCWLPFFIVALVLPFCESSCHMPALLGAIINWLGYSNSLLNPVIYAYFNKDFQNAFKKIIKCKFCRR
Description: as §1
5HT1a receptors: A 1 nM solution of radioactive […], which acts as a specific ligand, was incubated with the membrane corresponding to 1 mg of rat cortex for 20 min at 35° C. buffered at pH 7.4 with Tris.HCl.
Non-specific binding was then determined by addition of a 20 micromolar concentration of unlabelled buspirone. IC50 (inhibitory concentration 50%) was calculated from the inhibition rate of the specific binding obtained by addition of eleven different concentrations of the compounds to be tested. After the incubation was completed, the sample was filtered through a glass fiber filter and then washed three times with Tris.HCl buffer. The amount of receptor-bound radioactivity was retained on the membrane and determined by liquid scintillation counting.
as §2

D2 receptors = target: T3, D2 receptors (Rattus norvegicus, UniProt P61169); assay: Specific binding to D2 receptors ([3H]spiperone, rat striatum membrane)
T3 construct: membrane corresponding to 20 mg of rat striatum; from tissue; host or cells: rat striatum membrane
Description: D2 receptors: A 2-nM solution of radioactive spiperone ([^3 H]spiperone), which acts as a specific ligand, was incubated with the membrane corresponding to 20 mg of rat striatum for 20 min at 35° C. buffered at pH 7.4 with Tris.HCl. The non-specific binding was then determined by addition of a micromolar concentration of unlabelled spiperone. […] After the incubation was completed, the sample was filtered through a glass fiber filter and then washed three times with Tris.HCl buffer. The amount of receptor-bound radioactivity was retained on the membrane and determined by liquid scintillation counting.

in vivo = settings: rat, po
[2] = oral, mice, apomorphine 1 mg/kg s.c. after 60 min
[3] = 1 nM [3H]5-OH-DPAT, rat cortex, 20 min, 35° C., pH 7.4, read-out: IC50 5HT1a

T1 sequence (P14842 whole entry): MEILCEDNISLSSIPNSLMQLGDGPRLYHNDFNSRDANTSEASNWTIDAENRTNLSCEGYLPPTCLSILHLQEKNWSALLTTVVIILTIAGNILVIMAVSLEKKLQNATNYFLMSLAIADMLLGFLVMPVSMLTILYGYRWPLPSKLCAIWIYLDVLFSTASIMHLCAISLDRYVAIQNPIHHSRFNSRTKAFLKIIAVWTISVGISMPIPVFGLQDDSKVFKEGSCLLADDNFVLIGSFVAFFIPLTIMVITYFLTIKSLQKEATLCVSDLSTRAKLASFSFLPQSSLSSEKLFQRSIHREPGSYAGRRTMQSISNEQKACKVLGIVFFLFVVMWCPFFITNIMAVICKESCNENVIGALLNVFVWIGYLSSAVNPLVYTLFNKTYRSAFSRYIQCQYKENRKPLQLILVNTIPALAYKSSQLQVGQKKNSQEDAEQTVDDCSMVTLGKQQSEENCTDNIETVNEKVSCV
T3 sequence (P61169 whole entry): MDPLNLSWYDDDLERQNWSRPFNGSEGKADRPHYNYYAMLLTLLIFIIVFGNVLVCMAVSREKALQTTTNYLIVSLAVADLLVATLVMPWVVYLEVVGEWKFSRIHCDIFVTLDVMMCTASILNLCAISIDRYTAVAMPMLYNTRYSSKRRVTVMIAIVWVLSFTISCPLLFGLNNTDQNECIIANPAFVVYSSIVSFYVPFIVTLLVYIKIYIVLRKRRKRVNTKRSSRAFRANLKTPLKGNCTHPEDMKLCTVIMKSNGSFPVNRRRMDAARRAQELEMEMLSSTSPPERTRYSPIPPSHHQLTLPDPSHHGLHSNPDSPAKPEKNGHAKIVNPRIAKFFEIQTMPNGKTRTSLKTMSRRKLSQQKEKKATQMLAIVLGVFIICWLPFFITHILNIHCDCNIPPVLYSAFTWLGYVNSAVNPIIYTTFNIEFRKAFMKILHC

| SMILES | ED50 [1, 2] [mg/kg] | IC50 (5HT2 receptors) [nM] | IC50 (5HT1a receptors; [3]) [nM] | IC50 (D2 receptors; 2 nM [3H]spiperone, rat striatum, 20 min, 35° C., pH 7.4, read-out: IC50 D2) [nM] | ED50 (in vivo) [mg/kg] | selectivity ratio (in vivo) | ED50 ([1]; po) [mg/kg] | IC50 (5HT1a receptors) [nM] | IC50 (D2 receptors) [nM] |
| --- | --- | --- | --- | --- | --- | --- | --- | --- | --- |
| O=c1ccoc2cc(OCCCN3CCC(c4noc5cc(F)ccc45)CC3)ccc12 [Ex. 1, 7-[3-[4-(6-fluoro-1,2-benzisoxazole-3-yl)piperidin-1-yl]propoxy]chromen-4-one] | 2.7 | 11.2 | 383 | 30 | 11.2 | 4.17 | – | – | – |
| Cc1coc2cc(OCCCN3CCC(c4noc5cc(F)ccc45)CC3)ccc2c1=O [Ex. 2, 7-[3-[4-(6-fluoro-1,2-benzisoxazole-3-yl)piperidin-1-yl]propoxy]-3-methyl-chromen-4-one] | 0.4 | 11.3 | 249 | – | 2.9 | 7.25 | – | – | – |
| O=c1c(CO)coc2cc(OCCCN3CCC(c4noc5cc(F)ccc45)CC3)ccc12 [Ex. 3, 7-[3-[4-(6-fluoro-1,2-benzisoxazole-3-yl)piperidin-1-yl]propoxy]-3-(hydroxymethyl)-chromen-4-one] | – | 4.71 | – | – | 3.8 | 15.2 | 0.25 | 152 | 11.6 |
